In ChEMBL document CHEMBL1201862, “PubChem BioAssay data set” (2004):
The source made the active and inactive calls.

Experiments:
[1] = HepG2 cell cytotoxicity, dose response, cytotoxicity control for non-replicating M. tuberculosis project (AID 489018); format: functional; details: Mycobacterium tuberculosis
[2] = THP-1 cell cytotoxicity, dose response, cytotoxicity control for non-replicating M. tuberculosis project (AID 489025); format: functional
[3] = molecular target: T1, Microphthalmia-associated transcription factor (Homo sapiens, UniProt O75030); assay: TRPM1 promoter luciferase signal decrease, dose response, MITF inhibitor project, cell-based, SK-MEL-5, cherry-picked, set 3 (AID 493073); format: functional
T1 sequence (O75030 whole entry): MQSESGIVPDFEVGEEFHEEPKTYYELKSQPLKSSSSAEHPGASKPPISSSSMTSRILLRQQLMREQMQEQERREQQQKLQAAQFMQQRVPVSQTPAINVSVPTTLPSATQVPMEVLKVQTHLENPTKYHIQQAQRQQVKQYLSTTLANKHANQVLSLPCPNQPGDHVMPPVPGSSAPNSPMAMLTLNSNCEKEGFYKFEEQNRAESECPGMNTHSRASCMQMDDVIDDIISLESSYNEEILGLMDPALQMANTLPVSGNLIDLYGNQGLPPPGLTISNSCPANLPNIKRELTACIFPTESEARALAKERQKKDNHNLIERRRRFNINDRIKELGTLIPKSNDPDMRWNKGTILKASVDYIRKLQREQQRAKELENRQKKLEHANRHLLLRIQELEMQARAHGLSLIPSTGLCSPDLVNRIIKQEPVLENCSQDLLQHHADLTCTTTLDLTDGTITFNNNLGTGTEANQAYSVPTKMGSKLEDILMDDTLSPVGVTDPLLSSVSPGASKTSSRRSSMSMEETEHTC

[4] = Vero E6 cell cytotoxicity, dose response, cytotoxicity control for non-replicating M. tuberculosis project, secondary assay (AID 492998); format: functional, VeroE6; details: Vero C1008
cells [5] = format: functional
Cannabinoid receptor 2 [6] = molecular target: T2, Cannabinoid receptor 2 (Homo sapiens, UniProt P34972); assay: SAR analysis of antagonists of the Cannabinoid Receptor 2 using an Image-Based Assay. [Related pubchem assays (depositor defined):AID2013, AID2026]; format: functional
[7] = molecular target: T3, Corticotropin-releasing factor receptor 2/Corticotropin-releasing factor-binding protein (Homo sapiens, UniProt P24387+Q13324); assay: activators of CRF receptor 2 with binding protein – uHTS hits, confirmation (AID 602473); format: functional; details: read-out: EC50_Mean
T3 sequence (Q13324 whole entry): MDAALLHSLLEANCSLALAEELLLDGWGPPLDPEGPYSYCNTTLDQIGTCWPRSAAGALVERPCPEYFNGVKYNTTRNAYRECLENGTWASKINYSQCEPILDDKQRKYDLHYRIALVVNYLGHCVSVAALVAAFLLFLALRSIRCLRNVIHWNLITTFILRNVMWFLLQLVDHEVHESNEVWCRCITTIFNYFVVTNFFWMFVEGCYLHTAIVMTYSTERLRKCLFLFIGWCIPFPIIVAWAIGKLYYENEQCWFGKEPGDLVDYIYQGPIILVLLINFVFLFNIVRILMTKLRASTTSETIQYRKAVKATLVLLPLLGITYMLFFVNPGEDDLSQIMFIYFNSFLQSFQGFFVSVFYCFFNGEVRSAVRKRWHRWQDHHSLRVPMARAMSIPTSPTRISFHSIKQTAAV
T3 sequence (P24387 whole entry): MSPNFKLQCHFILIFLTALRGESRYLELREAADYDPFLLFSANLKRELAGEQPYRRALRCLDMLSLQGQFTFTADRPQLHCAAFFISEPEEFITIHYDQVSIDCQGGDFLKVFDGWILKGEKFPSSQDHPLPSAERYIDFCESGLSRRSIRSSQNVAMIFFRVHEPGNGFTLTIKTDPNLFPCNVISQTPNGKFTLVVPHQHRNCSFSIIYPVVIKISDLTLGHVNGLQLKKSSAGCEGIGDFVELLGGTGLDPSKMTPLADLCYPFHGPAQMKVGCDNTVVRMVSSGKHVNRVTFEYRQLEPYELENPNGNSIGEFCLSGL

[8] = molecular target: T3, Corticotropin-releasing factor receptor 2/Corticotropin-releasing factor-binding protein; assay: Dose Response confirmation of uHTS hits for small molecule antagonists of the CRF-binding protein and CRF-R2 receptor complex.; format: functional; details: read-out: IC50_Mean
Cannabinoid receptor 1 [9] = molecular target: T4, Cannabinoid receptor 1 (Homo sapiens, UniProt P21554); assay: SAR analysis of antagonists of the Cannabinoid Receptor 1 using an Image-Based Assay - Set 2. [Related pubchem assays (depositor defined):AID2013, AID2026]; format: functional
[10] = molecular target: T5, G-protein coupled receptor 55 (Homo sapiens, UniProt Q9Y2T6); assay: GPR55 antagonists blocking LPI-driven arrestin recruitment, primary screen, imaging, U2OS, beta-arrestin-GFP, LPI agonist (AID 2013); format: functional;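 also: antagonist potency measured as reduced agonist-driven arrestin aggregation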
Cannabinoid receptor 2 [11] = molecular target: T2, Cannabinoid receptor 2; assay: SAR analysis of agonists of the Cannabinoid Receptor 2 using an Image-Based Assay. [Related pubchem assays (depositor defined):AID2013, AID2026]; format: functional
[12] = molecular target: T5, G-protein coupled receptor 55; assay: GPR55 antagonist potency of analogs, SAR follow-up, imaging, U2OS, beta-arrestin-GFP, LPI agonist, set 2 (AID 2820); format: functional
[13] = molecular target: T6, G-protein coupled receptor 35 (Homo sapiens, UniProt Q9HC97); assay: SAR analysis of Agonists of the GPR35 Receptor using an Image-Based Assay - Set 2. [Related pubchem assays (depositor defined):AID2013, AID2026]; format: functional
Cannabinoid receptor 1 [14] = molecular target: T4, Cannabinoid receptor 1; assay: SAR analysis of agonists of the Cannabinoid Receptor 1 using an Image-Based Assay - Set 2. [Related pubchem assays (depositor defined):AID2013, AID2026]; format: functional
[15] = molecular target: T6, G-protein coupled receptor 35; assay: SAR analysis of Antagonists of the GPR35 Receptor using an Image-Based Assay - Set 3. [Related pubchem assays (depositor defined):AID2013, AID2026]; format: functional
[16] = Luminescence Cell-Based Dose Confirmation HTS to Identify Inhibitors of Platelet Dense Granule Release. [Related pubchem assays: 1663 (Primary HTS), 1678 (Summary of Project)]; format: functional
[17] = molecular target: Luciferin 4-monooxygenase (Photinus pyralis, UniProt P08659); assay: firefly luciferase enzyme inhibitors, dose response, biochemical, luminescence (AID 1891)
INS1 = assay: beta cell apoptosis inhibitors, cytokine rescue, dose response, luminescence, retest (AID 449756); format: functional, cell-based; details: Rattus norvegicus;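 also: cell death triggered by IL-1 beta plus TNF-alpha plus IFN-gamma mixture; protective hits raise ATP signal compared with cytokine alone wells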
cells [18] = format: functional, cell-based
cells [19] = format: functional, cell-based; remark: listed apart in the source

T4 sequence (P21554 whole entry): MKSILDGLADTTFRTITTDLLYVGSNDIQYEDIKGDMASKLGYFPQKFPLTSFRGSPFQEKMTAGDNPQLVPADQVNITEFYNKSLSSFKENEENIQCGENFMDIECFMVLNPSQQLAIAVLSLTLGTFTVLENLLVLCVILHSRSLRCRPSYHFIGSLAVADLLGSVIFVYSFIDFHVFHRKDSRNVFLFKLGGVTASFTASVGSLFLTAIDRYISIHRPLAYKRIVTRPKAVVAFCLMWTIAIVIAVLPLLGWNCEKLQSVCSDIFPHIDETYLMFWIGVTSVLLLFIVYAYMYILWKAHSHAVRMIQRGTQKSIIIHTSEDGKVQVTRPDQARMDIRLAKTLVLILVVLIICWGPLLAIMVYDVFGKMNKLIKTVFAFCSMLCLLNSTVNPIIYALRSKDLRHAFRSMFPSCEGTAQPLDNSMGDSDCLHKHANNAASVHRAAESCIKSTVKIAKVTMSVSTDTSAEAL
T6 sequence (Q9HC97 whole entry): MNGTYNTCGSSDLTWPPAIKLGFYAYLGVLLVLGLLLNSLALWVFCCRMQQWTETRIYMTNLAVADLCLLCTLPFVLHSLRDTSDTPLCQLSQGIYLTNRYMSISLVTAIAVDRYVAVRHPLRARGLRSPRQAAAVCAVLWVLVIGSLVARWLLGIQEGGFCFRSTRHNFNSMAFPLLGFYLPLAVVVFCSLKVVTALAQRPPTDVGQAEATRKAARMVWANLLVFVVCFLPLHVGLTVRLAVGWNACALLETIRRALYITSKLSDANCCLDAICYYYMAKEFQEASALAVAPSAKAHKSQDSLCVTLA
T5 sequence (Q9Y2T6 whole entry): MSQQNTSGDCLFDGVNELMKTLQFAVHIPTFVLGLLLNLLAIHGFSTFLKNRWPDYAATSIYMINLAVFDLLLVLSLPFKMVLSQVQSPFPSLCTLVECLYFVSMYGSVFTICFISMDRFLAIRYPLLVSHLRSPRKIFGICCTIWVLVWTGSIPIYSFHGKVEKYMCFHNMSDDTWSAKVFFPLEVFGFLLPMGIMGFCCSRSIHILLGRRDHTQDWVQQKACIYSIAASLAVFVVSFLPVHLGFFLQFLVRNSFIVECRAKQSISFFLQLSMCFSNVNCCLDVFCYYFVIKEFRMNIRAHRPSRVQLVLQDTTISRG
T2 sequence (P34972 whole entry): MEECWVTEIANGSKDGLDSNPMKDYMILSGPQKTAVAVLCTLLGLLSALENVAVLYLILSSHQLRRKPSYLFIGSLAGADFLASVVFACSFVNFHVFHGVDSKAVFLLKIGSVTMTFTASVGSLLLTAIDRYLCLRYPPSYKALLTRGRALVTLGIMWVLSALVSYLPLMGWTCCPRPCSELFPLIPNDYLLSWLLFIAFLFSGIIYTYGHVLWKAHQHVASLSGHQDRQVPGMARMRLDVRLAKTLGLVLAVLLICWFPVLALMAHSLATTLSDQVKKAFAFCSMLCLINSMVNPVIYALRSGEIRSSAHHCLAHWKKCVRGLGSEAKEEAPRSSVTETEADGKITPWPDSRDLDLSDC
Luciferin 4-monooxygenase, sequence (P08659 whole entry): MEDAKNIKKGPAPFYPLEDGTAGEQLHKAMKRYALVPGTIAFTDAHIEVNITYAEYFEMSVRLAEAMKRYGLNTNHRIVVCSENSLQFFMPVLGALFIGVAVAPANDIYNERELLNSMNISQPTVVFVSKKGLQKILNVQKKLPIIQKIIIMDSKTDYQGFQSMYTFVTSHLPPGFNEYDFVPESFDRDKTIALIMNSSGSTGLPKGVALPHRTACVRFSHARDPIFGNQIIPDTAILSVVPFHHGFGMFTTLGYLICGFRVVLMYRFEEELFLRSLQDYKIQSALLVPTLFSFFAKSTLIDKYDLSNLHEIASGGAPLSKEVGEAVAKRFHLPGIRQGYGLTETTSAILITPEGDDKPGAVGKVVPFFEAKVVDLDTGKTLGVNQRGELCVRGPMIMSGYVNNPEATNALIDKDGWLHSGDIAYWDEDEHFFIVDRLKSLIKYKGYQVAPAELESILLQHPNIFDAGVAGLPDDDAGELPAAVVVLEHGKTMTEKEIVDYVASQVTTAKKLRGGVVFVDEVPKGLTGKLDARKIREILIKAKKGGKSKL

Row | Compound | CC50 [1] | CC50 [2] | AC50 [3] | CC50 [4] | IC50 (cells [5]) | IC50 (Cannabinoid receptor 2 [6]) | EC50 [7] | IC50 [8] | IC50 (Cannabinoid receptor 1 [9]) | IC50 [10] | EC50 (Cannabinoid receptor 2 [11]) | IC50 [12] | EC50 [13] | EC50 (Cannabinoid receptor 1 [14]) | IC50 [15] | EC50 [16] | EC50 [17] | AC50 (INS1) | EC50 (cells [18]) | EC50 (cells [19])
1 | Cc1ccc(NC(=O)c2ccc([N+](=O)[O-])o2)cc1S(=O)(=O)N1CCOCC1 | 9.48 µM (active) | 6.1 µM (active) | 11.4 µM (active) | 6.5 µM (active) | 18.4 µM (active) |  |  |  |  |  |  |  |  |  |  |  |  |  |  | 
2 | COC(=O)C1=C(N)c2c(F)cccc2C1(C#N)c1ccccc1 (stereo not drawn) |  |  |  |  |  | > 32 µM (inactive) | > 53 µM (inactive) | > 47.1 µM (inactive) | > 32 µM (inactive) | 2.34 µM (active) | > 32 µM (inactive) | 0.928 µM (active) | > 32 µM (inactive) | > 32 µM (inactive) | > 32 µM (inactive) |  |  |  |  | 
3 | COc1cccc(/C=N/NC(=O)c2ccoc2C)c1O | 6.69 µM (active) | 4.17 µM (active) |  | 9.35 µM (active) |  |  |  |  |  |  |  |  |  |  |  | 2.09 µM (active) | 4.56 µM (active) | 3.85 µM (active) | 7.29 µM (active) | 82.2 µM (active)
